Experimental data published in patent US8697869B2, “3-(heteroaryl-amino)-1,2,3,4-tetrahydro-9H-carbazole derivatives and their use as prostaglandin D2 receptor modulators” (Actelion Pharmaceuticals Ltd., priority 2010, dated 2014).

Experiments:
hCRTH2 receptor [1] = target: T1, hCRTH2 receptor (Homo sapiens (Human), UniProt Q9Y5Y4); experiment: hCRTH2 receptor membranes radioligand displacement assay (3H-PGD2); settings: 3H-PGD2 2.5 nM, HEK293-hCRTH2 membranes, Binding-Buffer with 0.1% BSA
Experimental: Biological Assays: Preparation of hCRTH2 Receptor Membranes and Radioligand Displacement Assay:
(§1) First, recombinant HEK293-hCRTH2 cells were detached from culture plates into 5 ml buffer A/plate (Buffer A: 5 mM Tris, 1 mM MgCl2-6H2O pH=7.4) using a rubber policeman. Cells were then transferred into centrifugation tubes and centrifuged for 5 min at 400 g. The cell pellet was resuspended in the same buffer and tubes were frozen at −80° C. Cells were thawed and membrane fragments were generated by homogenization using a polytron homogenizer (30 seconds). The membrane fragments were then centrifuged at 3000 g for 20 minutes and resuspended in buffer C (Buffer C: 75 mM Tris, 25 mM MgCl2, 250 mM Saccharose pH 7.4). Aliquots of membrane fragements were stored at −20° C.
(§2) Binding assay was performed in a final assay volume of 250 μl. First, 25 μl of test compound, previously diluted in Binding-Buffer (Binding-Buffer: 50 mM Tris-Base, 100 mM NaCl, 1 mM EDTA, 0.1% BSA (protease free), 0.01% NaN3, 10 mM MnCl2 pH 7.0) was placed into each well. After addition of 75 μl Binding-Buffer, 50 μl of the radioligand ^3H-PGD2 (at 2.5 nM (220.000 dpm/well) from ANAWA ART0662) was added to each well. Binding assay was started by addition of 100 μl CRTH2 membrane fragments, reaching a final concentration of 20 μg/well. For non-specific binding, PGD2 was added to the reaction mixture to […] final concentration. This assay mix was incubated for 90 minutes at room temperature and then filtered through a GF/C filter 96-well plate which was pre-soaked for 3 hours in 0.5% polyethyleneimine (PEI). The filter-wells were washed three times with ice cold Binding-Buffer. Then, 40 μl of Microscint-40 (Packard) was added to each well and the retained radioactivity quantified in a Topcount (Packard).

hCRTH2 receptor [2] = target: T1, hCRTH2 receptor; experiment: Radioligand displacement assay in presence of human serum albumin (HSA); settings: 3H-PGD2 2.5 nM, Binding-Buffer with 0.5% HSA instead of 0.1% BSA
Experimental: as §1, §2
Radioligand Displacement Assay-Human Serum Albumin (HSA):
Radioligand displacement assay in presence of human serum albumin (HSA) was performed as described above, with following modifications. Binding-Buffer-HSA: Binding-buffer+0.5% Sigma Albumin from Human serum A1887 (instead of 0.1% BSA). A volume of 25 μl test compound, previously diluted in Binding-Buffer-HSA was placed into each well. After addition of 75 μl Binding-Buffer-HSA, 50 μl of ^3H-PGD2 (at 2.5 nM (220.000 dpm/well) from ANAWA ART0662) was added to each well. Remaining protocol was identical as described above.

eosinophils = experiment: Eosinophil shape change assay with human plasma; type: cell-based; settings: Eosinophil; human polymorphonuclear cells, 50% human plasma, activated with 100 nM PGD2
Experimental: After obtaining informed consent, blood samples were drawn by venipuncture according to the protocol approved by the ethics committee of Basel, Switzerland. Polymorphonuclear leukocytes (containing eosinophils, basophils and neutrophils) were isolated using the Polymorphprep™ method (Axis-Shield). In brief, anticoagulated whole blood was layered onto a Polymorphprep gradient (density 1.113 g/ml) and centrifuged at 500 g for 30 min. The polymorphonuclear cell fraction was harvested and depleted for erythrocytes by hypotonic saline lysis.
The polymorphonuclear cells were resuspended in assay buffer (1×PBS with Ca^2+/Mg^2+ supplemented with 0.1% BSA, 10 mM HEPES, and 10 mM Glucose, pH 7.4) at 5×10^6 cells/ml and stained with anti-CD49d-APC ((APC=Allophycocyanin) for 1 hour at RT. Test compounds, at various concentrations, were preincubated 10 min in human plasma (anticoagulated with a thrombin inhibitor). Then, human plasma was added to the polymorphonuclear cells to 50% of final assay volume with polymorphonuclear cells at 4×10^6 cells/rd. After incubation for 10 minutes at 37° C., the polymorphonuclear cells were activated for 5 min at 37° C. by addition of PGD2 at 100 nM final concentration. Activation was stopped by addition of 0.5 ml paraformaldehyde (1%).
Immediately after fixation with paraformaldehyde, the samples were analyzed by FACSCanto flow cytometer (BD Biosciences) and target cells were identified by their forward-scatter (FSC) and side-scatter (SSC) characteristics. Eosinophils were identified by the anti-CD49d-APC signal and their characteristic side-scatter (SSC) profile. Shape change responses, indicative of eosinophil activation, were quantified as the percent of cells with an increased forward-scatter.

T1 sequence (Q9Y5Y4 whole entry): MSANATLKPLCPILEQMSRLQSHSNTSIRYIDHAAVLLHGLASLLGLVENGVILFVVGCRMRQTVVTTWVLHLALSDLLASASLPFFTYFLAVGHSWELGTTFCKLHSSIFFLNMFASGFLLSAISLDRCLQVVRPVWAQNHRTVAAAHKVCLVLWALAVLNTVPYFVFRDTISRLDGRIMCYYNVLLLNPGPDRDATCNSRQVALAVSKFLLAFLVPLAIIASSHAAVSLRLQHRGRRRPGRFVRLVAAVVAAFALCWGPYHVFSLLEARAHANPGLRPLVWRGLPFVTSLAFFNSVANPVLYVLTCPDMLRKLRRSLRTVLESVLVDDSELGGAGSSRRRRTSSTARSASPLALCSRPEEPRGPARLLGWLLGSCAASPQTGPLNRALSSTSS

SMILES | IC50 (hCRTH2 receptor [1]) | IC50 (hCRTH2 receptor [2]) | IC50 (eosinophils)
CN(c1nc2cc(Cl)ccc2s1)[C@H]1CCc2c(c3cc(F)ccc3n2CC(=O)O)C1 [Example 33, (3S)-2-(3-((5-chlorobenzo[d]thiazol-2-yl)(methyl)amino)-6-fluoro-3,4-dihydro-1H-carbazol-9(2H)-yl)acetic acid] | 10 nM | 8 nM | 46 nM
COCCN(c1ncc(Cl)cn1)[C@H]1CCc2c(c3cc(F)ccc3n2CC(=O)O)C1 [Example 34, (3S)-2-(3-((5-chloropyrimidin-2-yl)(2-methoxyethyl)amino)-6-fluoro-3,4-dihydro-1H-carbazol-9(2H)-yl)acetic acid] | 5.9 nM | 14 nM | 8 nM
CN(c1ncc(C2CC2)cn1)[C@H]1CCc2c(c3cc(F)ccc3n2CC(=O)O)C1 [Example 42, (3S)-2-(3-((5-cyclopropylpyrimidin-2-yl)(methyl)amino)-6-fluoro-3,4-dihydro-1H-carbazol-9(2H)-yl)acetic acid] | 2.2 nM | 36 nM | 19 nM
CN(c1nc2ccc(F)cc2o1)[C@H]1CCc2c(c3cc(F)ccc3n2CC(=O)O)C1 [Example 43, (3S)-2-(6-fluoro-3-((6-fluorobenzo[d]oxazol-2-yl)(methyl)amino)-3,4-dihydro-1H-carbazol-9(2H)-yl)acetic acid] | 4.6 nM | 12 nM | 6 nM
Cc1csc(N(C)C2CCc3c(c4cc(F)ccc4n3CC(=O)O)C2)n1 (stereo not drawn) [Example 45, 2-(6-fluoro-3-(methyl(4-methylthiazol-2-yl)amino)-3,4-dihydro-1H-carbazol-9(2H)-yl)acetic acid] | 9.7 nM | 25 nM | 414 nM

Continued by falling IC50 (hCRTH2 receptor [1]), values first:

IC50 (hCRTH2 receptor [1]) | IC50 (hCRTH2 receptor [2]) | IC50 (eosinophils) | SMILES
3.1 nM | 6 nM | 16 nM | CN(c1nc2cc(F)ccc2s1)[C@H]1CCc2c(c3cc(F)ccc3n2CC(=O)O)C1 [Example 39, (3S)-2-(6-fluoro-3-((5-fluorobenzo[d]thiazol-2-yl)(methyl)amino)-3,4-dihydro-1H-carbazol-9(2H)-yl)acetic acid]
2 nM | 21 nM | 75 nM | CN(c1nc2ccc(Cl)cc2o1)[C@H]1CCc2c(c3cc(F)ccc3n2CC(=O)O)C1 [Example 40, (3S)-2-(6-fluoro-3-((6-chlorobenzo[d]oxazol-2-yl)(methyl)amino)-3,4-dihydro-1H-carbazol-9(2H)-yl)acetic acid]
1.2 nM | 9 nM | 2 nM | CN(c1nc2ccc(F)cc2s1)[C@H]1CCc2c(c3cc(F)ccc3n2CC(=O)O)C1 [Example 38, (3S)-2-(6-fluoro-3-((6-fluorobenzo[d]thiazol-2-yl)(methyl)amino)-3,4-dihydro-1H-carbazol-9(2H)-yl)acetic acid]
